Experimental data: US20080072337A1, “Braf Expression in Zebrafish and Uses Thereof” (Children's Medical Center Corporation, priority 2004, published 2008)

Test system: zebrafish
Experiment: Examination of DMBA treated zebrafish for melanoma
Assay type: in vivo
Conditions: over 10,000 DMBA treated zebrafish examined; unpublished data of the applicants

Cc1c2ccccc2c(C)c2c1ccc1ccccc12 [DMBA]
melanoma identified in treated zebrafish: failed to identify a single melanoma
